Assay results published in paper PMC7377239, “Cardiovascular Effects of Polychlorinated Biphenyls and Their Major Metabolites” (Environmental Health Perspectives, 2020).
Where two headings read alike, the source gives them in different places.

Test system: iCell cardiomyocytes (human iPSC-derived cardiomyocytes)
Assay: Intracellular Ca2+ flux / beating parameters in iCell cardiomyocytes (FLIPR tetra), 90 min or 24 h
Assay type: cell-based
Conditions: Homo sapiens, Cardiomyocyte, 0.00 µM = 100.00; for activity at 0.1 µM: 0.10 µM
Method in brief: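 Gelatin-plated iCell cardiomyocytes (5,000/well) were dye-loaded for 2 h at 37 °C, then exposed for 90 min or 24 h to PCBs/metabolites (5× plates at 0.05–500 µM; 0.5% DMSO final) in triplicate. Ca2+ flux was read for 100 s at 8 Hz and 37 °C. Peak height, frequency, spacing CV and decay/rise ratio were vehicle-normalized and fitted with a four-parameter logistic model, with POD set at 1 SD of vehicle.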

[1] = 1.5 h, read-out: cm.amp.avg.90min
[2] = 1.5 h, read-out: cm.amp.cv.90min
[3] = 1.5 h, read-out: cm.decay.rise.90min
[4] = 1.5 h, read-out: cm.spacing.cv.90min
[5] = 24 h, read-out: cm.amp.avg.24hrs
[6] = 24 h, read-out: cm.amp.cv.24hrs
[7] = 24 h, read-out: cm.decay.rise.24hrs
[8] = 24 h, read-out: cm.spacing.cv.24hrs

SMILES: COc1ccc(-c2cccc(Cl)c2)cc1Cl [4-OMe PCB11]
- activity at 0.01 µM [1]: 85.7%
- activity at 0.01 µM [2]: 106%
- activity at 0.01 µM (1.5 h, read-out: cm.bpm.90min): 99.1%
- activity at 0.01 µM [3]: 99.7%
- activity at 0.01 µM [4]: 111%
- activity at 0.1 µM [1]: 97.2%
- activity at 0.1 µM [2]: 98.8%
- activity at 0.1 µM (1.5 h, read-out: cm.bpm.90min): 105%
- activity at 0.1 µM [3]: 99.7%
- activity at 0.1 µM [4]: 106%
- activity at 1 µM [1]: 106%
- activity at 1 µM [2]: 101%
- activity at 1 µM (1.5 h, read-out: cm.bpm.90min): 96.5%
- activity at 1 µM [3]: 101%
- activity at 1 µM [4]: 145%
- activity at 10 µM [1]: 94.1%
- activity at 10 µM [2]: 109%
- activity at 10 µM (1.5 h, read-out: cm.bpm.90min): 127%
- activity at 10 µM [3]: 94%
- activity at 10 µM [4]: 102%
- activity at 100 µM [1]: 0%
- activity at 100 µM [2]: 0%
- activity at 100 µM (1.5 h, read-out: cm.bpm.90min): 0%
- activity at 100 µM [3]: 0%
- activity at 100 µM [4]: 0%
- activity at 0.01 µM [5]: 121%
- activity at 0.01 µM [6]: 82.2%
- activity at 0.01 µM (24 h, read-out: cm.bpm.24hrs): 110%
- activity at 0.01 µM [7]: 94.8%
- activity at 0.01 µM [8]: 108%
- activity at 0.1 µM [5]: 79.3%
- activity at 0.1 µM [6]: 98.7%
- activity at 0.1 µM (24 h, read-out: cm.bpm.24hrs): 103%
- activity at 0.1 µM [7]: 98.9%
- activity at 0.1 µM [8]: 101%
- activity at 1 µM [5]: 107%
- activity at 1 µM [6]: 95.6%
- activity at 1 µM (24 h, read-out: cm.bpm.24hrs): 90.7%
- activity at 1 µM [7]: 111%
- activity at 1 µM [8]: 98.4%
- activity at 10 µM [5]: 92.1%
- activity at 10 µM [6]: 119%
- activity at 10 µM (24 h, read-out: cm.bpm.24hrs): 123%
- activity at 10 µM [7]: 109%
- activity at 10 µM [8]: 118%
- activity at 100 µM [5]: 0%
- activity at 100 µM [6]: 0%
- activity at 100 µM (24 h, read-out: cm.bpm.24hrs): 0%
- activity at 100 µM [7]: 0%
- activity at 100 µM [8]: 0%
